Test results as given in patent publication US9873693B2 (Sunesis Pharmaceuticals, Inc., priority 2006, dated 2018).
Where two headings read alike, the source gives them in different places.

Columns and labels:
phosphorylated PDK1 = phosphorylated PDK1 (Homo sapiens (Human), UniProt O15530); experiment: PDK1 kinase assay (coupled PDK1/AKT/FAM-crosstide, IMAP); type: biochemical; details: 0.5 nM phosphorylated PDK1, 24 μM ATP; read-out: Inhibition of phospo-PDK1 in vitro IC50
dephosphorylated PDK1 = dephosphorylated PDK1 (Homo sapiens (Human), UniProt O15530); experiment: as above; type: biochemical; details: 25 nM un-phosphorylated PDK1, 24 μM ATP; read-out: Inhibition of dephospo-PDK1 in vitro IC50
dephosphorylated PDK1, sequence (O15530 51-360): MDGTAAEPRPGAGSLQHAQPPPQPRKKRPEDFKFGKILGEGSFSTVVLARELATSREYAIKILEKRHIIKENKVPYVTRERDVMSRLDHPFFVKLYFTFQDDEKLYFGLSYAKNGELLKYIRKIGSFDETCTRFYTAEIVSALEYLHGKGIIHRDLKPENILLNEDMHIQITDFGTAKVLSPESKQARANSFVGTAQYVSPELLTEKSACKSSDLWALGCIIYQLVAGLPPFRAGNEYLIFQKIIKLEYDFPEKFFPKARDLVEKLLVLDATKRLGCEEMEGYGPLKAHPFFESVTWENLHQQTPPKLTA
Description: A PDK1 kinase assay was performed as follows. PDK1 (amino acids 51-360) and AKT2 (amino acids 140-467 fused to PIFtide, amino acids […]) were expressed as N-terminally tagged GST fusion proteins in insect cells and purified to greater than 90% homogeneity. PDK1 protein was divided into two fractions, one of which was subsequently dephosphorylated. To generate dephosphorylated PDK1, the PDK1 was reacted with GST-tagged lambda-phosphatase in vitro. GST was subsequently cleaved proteolytically for both phosphorylated and dephosphorylated PDK1. Protein preparations were run on glutathione Sepharose columns to remove GST and GST-tagged lambda-phosphatase, if present. Phosphorylated PDK1 and dephosphorylated PDK1 were verified by mass-spectrometry. Enzyme activity was determined in a coupled PDK1/AKT/FAM-crosstide assay using either phosphorylated or unphosphorylated PDK1 and phosphorylation of FAM-crosstide was determined by standard IMAP protocol (Molecular Devices). For inhibition studies, compounds were titrated 3-fold in DMSO and diluted 40-fold into assay buffer (10 mM Tris HCl pH7.2; 10 mM MgCl2; 0.01% Triton X-100; 1 mM DTT) containing PDK1, AKT2, and FAM-crosstide. (final concentrations: 25 nM un-phosphorylated PDK1 or 0.5 nM phosphorylated PDK1, 30 nM unphosphorylated AKT2, and 100 nM crosstide substrate). The kinase reaction was initiated by adding ATP to a final concentration of 24 μM for both forms of PDK1 and incubated at 25° C. for 30 min. To detect assay product, the kinase reaction was combined with Progressive Binding Solution (1:600 Progressive Binding Reagent, 50% Buffer A, 50% Buffer B, Molecular Devices) in a 1:3 ratio. The mixture was incubated for 2 hours at 25° C. and the plate was scanned on an Analyst AD with excitation at 485 nm and emission at 530 nm. The fluorescence polarization value “P” is defined by the equation below. The value “mP” is generated by multiplying the P value for each reaction well by a factor of 1000. The value “ΔmP” for each well is the mP value for that well minus the mP value for the average negative control. P=(Fpar−Fperp)/(Fpar+Fperp) Eq.:
Where “par” is fluorescence intensity parallel to the excitation plane; and “perp” is fluorescence intensity perpendicular to the excitation plane. ΔmP values were plotted as a function of compound concentration and the data were analyzed with a 4-parameter fit using GraphPad Prism software.

phospho-akt (Thr308) = phospho-akt (Thr308) MSD ELISA in PC-3 cells; type: cell-based; details: Homo sapiens; for EC50: PC-3, 2 h; for inhibition at 1 µM / inhibition at 10 µM: read-out: Percent Inhibition of phospho-Akt (308) By MSD ELISA
Procedure, shortened: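 Read-out is MSD electrochemiluminescence after lysate capture overnight at 4 degrees and 1 hr RT detection-antibody step. Before lysis, overnight-plated PC-3 cells received three-fold serial dilutions of inhibitor in serum-free medium, with DMSO-only high controls.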

[1] = PC-3 cells, 2 hours, no serum, read-out: Inhibition of P308 Akt in cells using MSD EC50
[2] = PC-3 cells, 2 hours, no serum, read-out: Reduction of Cellular Levels of Akt p308 By MSD ELISA (EC50 μM)

phosphorylated PDK1, sequence (O15530 51-360): as above

Compound | IC50 (phosphorylated PDK1) [nM] | IC50 (dephosphorylated PDK1) [nM] | EC50 (phospho-akt (Thr308); read-out: Reduction of Cellular Levels of Akt p308 By MSD ELISA (EC50 μM)) [µM] | EC50 (phospho-akt (Thr308); [1]) [µM] | EC50 (phospho-akt (Thr308); [2]) [µM] | inhibition at 1 µM (phospho-akt (Thr308); PC-3 cells) [%] | inhibition at 10 µM (phospho-akt (Thr308); PC-3 cells) [%]
O=C(O)C[C@@H](NC(=O)c1cccn(Cc2ccc(F)c(F)c2)c1=O)c1ccc(-c2c[nH]c3ncccc23)s1 [Cpd 15] | < 500 | < 500 | > 5 | – | – | – | –
CCC[C@H](COc1ccc2[nH]c(=O)[nH]c2c1)NC(=O)c1cccn(Cc2ccc(F)c(F)c2)c1=O [Cpd 322] | < 500 | < 500 | – | 1 to 5 | 1 to 5 | – | –
O=C(NCc1ccc(-c2c[nH]c3ncc(Cl)cc23)s1)c1cccn(Cc2ccc(F)c(F)c2)c1=O [Cpd 23] | < 500 | < 500 | – | > 5 | > 5 | – | –
COC(=O)C[C@@H](NC(=O)c1cccn(Cc2ccc(F)c(F)c2)c1=O)c1ccc(-c2c[nH]c3ncccc23)s1 [Cpd 236] | 500 to 10000 | < 500 | – | – | > 5 | – | –
O=C(NCc1noc(-c2c[nH]c3ncccc23)n1)c1cc(Cl)cn(Cc2ccc(Cl)c(F)c2)c1=O [Cpd 316] | < 500 | < 500 | – | – | – | 25 to 75 | 25 to 75
CC1(C)C(=O)Nc2cc(/C=C/CNC(=O)c3cccn(Cc4cc(F)c(F)c(F)c4)c3=O)ccc21 [Cpd 206] | 500 to 10000 | < 500 | – | 1 to 5 | – | – | –
O=C(NCCOc1ccc2[nH]c(=O)[nH]c2c1)c1cccn(Cc2ccc(F)c(F)c2)c1=O [Cpd 113] | < 500 | < 500 | – | > 5 | – | – | –
O=C(NCc1noc(-c2c[nH]c3ncccc23)n1)c1cc(Cl)cn(Cc2ccc(F)cc2)c1=O [Cpd 319] | < 500 | < 500 | – | > 5 | – | < 25 | 25 to 75
O=C(NCc1nnc(-c2c[nH]c3ncccc23)o1)c1cccn(Cc2ccc(F)c(F)c2)c1=O [Cpd 125] | < 500 | < 500 | – | 1 to 5 | 1 to 5 | 25 to 75 | > 75
O=C(NCc1noc(-c2c[nH]c3ncccc23)n1)c1cc(Cl)cn(Cc2ccc(F)c(F)c2)c1=O [Cpd 314] | < 500 | < 500 | – | > 5 | – | 25 to 75 | > 75
O=C(c1cccn(Cc2ccc(F)c(F)c2)c1=O)N1CCc2ccc(-c3c[nH]c4ncccc34)cc2C1 [Cpd 232] | 500 to 10000 | 500 to 10000 | – | > 5 | – | – | –
O=C(NCc1cnc(-c2c[nH]c3ncccc23)s1)c1cccn(Cc2ccc(Cl)c(Cl)c2)c1=O [Cpd 323] | < 500 | < 500 | – | 1 to 5 | 1 to 5 | – | –
COc1ccnc(NCCCCCNC(=O)c2cccn(C(C)c3ccc(Cl)cc3)c2=O)n1 (stereo not drawn) [Cpd 254] | 500 to 10000 | < 500 | – | – | – | – | –
O=C(NCc1nc(-c2c[nH]c3ncccc23)c[nH]1)c1cccn(Cc2ccc(F)c(F)c2)c1=O [Cpd 116] | 500 to 10000 | < 500 | – | – | – | – | –
O=C(NCCCCCNc1nc2ccccc2o1)c1cccn(Cc2cccc(Cl)c2)c1=O [Cpd 100] | > 10000 | 500 to 10000 | – | – | – | – | –
O=C(NCc1cccc(-c2cc(=O)[nH][nH]2)c1)c1cccn(Cc2ccc(F)c(F)c2)c1=O [Cpd 217] | > 10000 | 500 to 10000 | – | – | – | – | –
COc1ccnc(NCCCCCNC(=O)c2cccn(Cc3ccc(F)c(F)c3)c2=O)n1 [Cpd 107] | 500 to 10000 | < 500 | – | – | – | – | –
COc1ccnc(NCCC#CCCNC(=O)c2cc(Cl)cn(C(C)c3ccc(Cl)cc3)c2=O)n1 (stereo not drawn) [Cpd 106] | < 500 | < 500 | – | – | – | – | –

Compound | IC50 (phosphorylated PDK1) [nM] | IC50 (dephosphorylated PDK1) [nM] | EC50 (phospho-akt (Thr308); read-out: Reduction of Cellular Levels of Akt p308 By MSD ELISA (EC50 μM)) [µM] | EC50 (phospho-akt (Thr308); [1]) [µM] | EC50 (phospho-akt (Thr308); [2]) [µM] | inhibition at 1 µM (phospho-akt (Thr308); PC-3 cells) [%] | inhibition at 10 µM (phospho-akt (Thr308); PC-3 cells) [%]
O=C(Nc1cccc(-c2ccc3[nH]c(=O)[nH]c3c2)c1)c1cccn(Cc2ccc(F)c(F)c2)c1=O [Cpd 162] | 500 to 10000 | < 500 | – | – | – | – | –
COc1ccnc(NCC/C=C/CCNC(=O)c2cccn(Cc3cccc(Cl)c3)c2=O)n1 [Cpd 103, 1-(3,4-Difluoro-benzyl)-2-oxo-1,2-dihydro-pyridine-3-carboxylic acid 3-(4-amino-1H-pyrazolo[3,4-d]pyrimidin-3-yl)-benzylamides] | 500 to 10000 | < 500 | – | – | – | – | –
COc1ccnc(NCCC#CCCNC(=O)c2cc(Cl)cn(Cc3ccc(Cl)cc3)c2=O)n1 [Cpd 256] | 500 to 10000 | < 500 | – | – | – | – | –
O=C(NCc1cc(-c2c[nH]c3ncccc23)[nH]n1)c1cccn(Cc2ccc(F)c(F)c2)c1=O [Cpd 142] | < 500 | < 500 | – | – | – | – | –
COc1ccnc(NCCC#CCCNC(=O)c2cccn(Cc3ccc(Cl)c(Cl)c3)c2=O)n1 [Cpd 255] | < 500 | < 500 | – | – | – | – | –
O=C(NCc1nnc(-c2c[nH]c3ncccc23)s1)c1cccn(Cc2ccc(F)c(F)c2)c1=O [Cpd 124] | < 500 | < 500 | – | – | – | – | –
COc1ccnc(NCCC#CCCNC(=O)c2cccn(Cc3ccc(F)c(F)c3)c2=O)n1 [Cpd 263] | < 500 | < 500 | – | – | – | – | –
NC(=O)Nc1ccc(OCCNC(=O)c2cccn(Cc3ccc(F)c(F)c3)c2=O)cc1 [Cpd 122] | 500 to 10000 | < 500 | – | – | – | – | –
O=C(NC1(c2nnc(-c3c[nH]c4ncccc34)o2)CC1)c1cccn(Cc2ccc(F)c(F)c2)c1=O [Cpd 281] | < 500 | < 500 | – | – | – | – | –
O=C(NCc1ncc(-c2c[nH]c3ncccc23)o1)c1cccn(Cc2ccc(F)c(F)c2)c1=O [Cpd 120] | < 500 | < 500 | – | – | – | – | –
O=C(NCCCCc1c[nH]c2ncccc12)c1cccn(Cc2cc(F)c(F)c(F)c2)c1=O [Cpd 271] | < 500 | < 500 | – | – | – | – | –
O=C(NCCSc1ccc2[nH]c(=O)[nH]c2c1)c1cccn(Cc2ccc(F)c(F)c2)c1=O [Cpd 117] | 500 to 10000 | 500 to 10000 | – | – | – | – | –
COc1ccnc(NCCCCCNC(=O)c2cccn(C(C)c3ccc(Cl)cc3)c2=O)n1 (stereo not drawn) [Cpd 105] | 500 to 10000 | < 500 | – | – | – | – | –
O=C1CC(c2cccc(CNC(=O)c3cccn(Cc4ccc(F)c(F)c4)c3=O)c2)CN1 (stereo not drawn) [Cpd 111] | 500 to 10000 | 500 to 10000 | – | – | – | – | –
COc1ccnc(NCCCCCNC(=O)c2cc(Cl)cn(Cc3ccc(Cl)cc3)c2=O)n1 [Cpd 252] | 500 to 10000 | < 500 | – | – | – | – | –
O=C(NCc1cccc(-c2ccc3nsnc3c2)c1)c1cccn(Cc2ccc(F)c(F)c2)c1=O [Cpd 218] | > 10000 | 500 to 10000 | – | – | – | – | –
O=C(NCCOc1cc2[nH]c(=O)[nH]c2cc1F)c1cccn(Cc2ccc(F)c(F)c2)c1=O [Cpd 155] | 500 to 10000 | < 500 | – | – | – | – | –
